Measured values reported in BigSolDB 2.1.

CC1(C)NC(=O)NC1=O
solubility (mole fraction)
Conditions | 283.15 K | 288.15 K | 293.15 K | 298.15 K | 303.15 K | 308.15 K | 313.15 K | 318.15 K | 323.15 K
in acetonitrile | 0.0123 | 0.0144 | 0.017 | 0.0196 | 0.0227 | 0.026 | 0.0294 | 0.0345 | 0.039
in ethanol | 0.0412 | 0.0465 | 0.0526 | 0.0592 | 0.0672 | 0.0757 | 0.0846 | 0.0961 | 0.108
in ethyl acetate | 0.0118 | 0.0133 | 0.0154 | 0.0175 | 0.0191 | 0.0213 | 0.0236 | 0.026 | 0.0289
in isobutanol | 0.0242 | 0.0284 | 0.0328 | 0.038 | 0.0439 | 0.0509 | 0.0577 | 0.0672 | 0.0757
in isopropanol | 0.0366 | 0.042 | 0.0481 | 0.0554 | 0.063 | 0.0714 | 0.0803 | 0.0914 | 0.102
in methanol | 0.0647 | 0.0719 | 0.0806 | 0.0896 | 0.0993 | 0.111 | 0.122 | 0.135 | 0.15
in n-butanol | 0.026 | 0.0296 | 0.0338 | 0.0389 | 0.0447 | 0.0509 | 0.0574 | 0.0661 | 0.0737
in n-pentanol | 0.0236 | 0.0267 | 0.0305 | 0.0348 | 0.0398 | 0.0453 | 0.0514 | 0.0583 | 0.0641
in n-propanol | 0.0326 | 0.0373 | 0.0424 | 0.0476 | 0.0543 | 0.0616 | 0.0687 | 0.0788 | 0.0881
in n-propyl acetate | 0.00923 | 0.0105 | 0.0118 | 0.0138 | 0.0155 | 0.0172 | 0.0193 | 0.0215 | 0.0234
in sec-butanol | 0.0384 | 0.0449 | 0.0505 | 0.058 | 0.0655 | 0.074 | 0.083 | 0.093 | 0.105
in water | 0.0163 | 0.0186 | 0.0213 | 0.0242 | 0.0279 | 0.0326 | 0.038 | 0.0458 | 0.0532
